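Briefly, cells in 96-well plates were exposed to five compound concentrations for 48 h, and endpoints were estimated by linear interpolation. The concentration for 50% growth inhibition is given as GI50. The concentration for full growth arrest is given as TGI.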
Tests used:
Assay in all cases: DTP human tumour cell line panel, 48 h
DU-145 prostate = system: DU-145 prostate
SK-MEL-5 melanoma = system: SK-MEL-5 melanoma
NCI/ADR-RES ovarian = system: NCI/ADR-RES ovarian
ACHN renal = system: ACHN renal
CCRF-CEM leukemia = system: CCRF-CEM leukemia
MCF7 breast = system: MCF7 breast
UO-31 renal = system: UO-31 renal
MOLT-4 leukemia = system: MOLT-4 leukemia
OVCAR-5 ovarian = system: OVCAR-5 ovarian
HCC-2998 colon = system: HCC-2998 colon
M14 melanoma = system: M14 melanoma
COLO 205 colon = system: COLO 205 colon
HCT-116 colon = system: HCT-116 colon
HS 578T breast = system: HS 578T breast
HCT-15 colon = system: HCT-15 colon
HL-60(TB) leukemia = system: HL-60(TB) leukemia
786-0 renal = system: 786-0 renal
SK-OV-3 ovarian = system: SK-OV-3 ovarian
SF-268 CNS = system: SF-268 CNS
K-562 leukemia = system: K-562 leukemia
SK-MEL-2 melanoma = system: SK-MEL-2 melanoma
MDA-MB-231 breast = system: MDA-MB-231 breast
SNB-19 CNS = system: SNB-19 CNS
IGROV1 ovarian = system: IGROV1 ovarian
NCI-H460 lung = system: NCI-H460 lung
RPMI-8226 leukemia = system: RPMI-8226 leukemia
T-47D breast = system: T-47D breast
LOX IMVI melanoma = system: LOX IMVI melanoma
PC-3 prostate = system: PC-3 prostate

CN(C)CCCOc1c2ccccc2nc2c1oc1ccc(Cl)cc12
GI50 (DU-145 prostate): 4.14 µM | TGI (DU-145 prostate): 14.5 µM | GI50 (SK-MEL-5 melanoma): 9.28 µM | TGI (SK-MEL-5 melanoma): 21.3 µM | GI50 (NCI/ADR-RES ovarian): 1.94 µM | TGI (NCI/ADR-RES ovarian): 10.2 µM | GI50 (ACHN renal): 2.2 µM | TGI (ACHN renal): 11.5 µM | GI50 (CCRF-CEM leukemia): 4.12 µM | TGI (CCRF-CEM leukemia): 46.1 µM | GI50 (MCF7 breast): 2.88 µM | TGI (MCF7 breast): 10.3 µM | GI50 (UO-31 renal): 2.32 µM | TGI (UO-31 renal): 12.1 µM | GI50 (MOLT-4 leukemia): 3.19 µM | TGI (MOLT-4 leukemia): 14 µM | GI50 (OVCAR-5 ovarian): 4.04 µM | TGI (OVCAR-5 ovarian): 15.9 µM | GI50 (HCC-2998 colon): 3.12 µM | TGI (HCC-2998 colon): 13.9 µM | GI50 (M14 melanoma): 3.04 µM | TGI (M14 melanoma): 11 µM | GI50 (COLO 205 colon): 2.49 µM | TGI (COLO 205 colon): 9.76 µM | GI50 (HCT-116 colon): 1.87 µM | TGI (HCT-116 colon): 13 µM | GI50 (HS 578T breast): 3.76 µM | TGI (HS 578T breast): 19.7 µM | GI50 (HCT-15 colon): 3.07 µM | TGI (HCT-15 colon): 12.5 µM | GI50 (HL-60(TB) leukemia): 3.13 µM | TGI (HL-60(TB) leukemia): 14.1 µM | GI50 (786-0 renal): 3.32 µM | TGI (786-0 renal): 15.3 µM | GI50 (SK-OV-3 ovarian): 4.6 µM | TGI (SK-OV-3 ovarian): 16.7 µM | GI50 (SF-268 CNS): 3.8 µM | TGI (SF-268 CNS): 17 µM | GI50 (K-562 leukemia): 2.79 µM | TGI (K-562 leukemia): > 100 µM | GI50 (SK-MEL-2 melanoma): 6.35 µM | TGI (SK-MEL-2 melanoma): 18.9 µM | GI50 (MDA-MB-231 breast): 2.64 µM | TGI (MDA-MB-231 breast): 10.5 µM | GI50 (SNB-19 CNS): 3.93 µM | TGI (SNB-19 CNS): 16.3 µM | GI50 (IGROV1 ovarian): 3.61 µM | TGI (IGROV1 ovarian): 13 µM | GI50 (NCI-H460 lung): 3.06 µM | TGI (NCI-H460 lung): 11.6 µM | GI50 (RPMI-8226 leukemia): 2.7 µM | TGI (RPMI-8226 leukemia): 7.56 µM | GI50 (T-47D breast): 4.92 µM | TGI (T-47D breast): 20.7 µM | GI50 (LOX IMVI melanoma): 1.48 µM | TGI (LOX IMVI melanoma): 3.08 µM | GI50 (PC-3 prostate): 3.16 µM
